Assay results: US4645779A, “Dialkylaminoalkoxybenzylalcohol derivatives, process for their preparation and pharmaceutical compositions containing them” (Richter Gedeon Vegyeszeti Gyar Rt, priority 1982, dated 1987)

Experiments:
[1] = Acute toxicity, single oral dose, 14 days observation; format: in vivo, rat; conditions: rat, in vivo, po, 500 mg./kg. p.o., n=10, read-out: Perished animals (%)
Description: (§1) The acute toxicity of the compounds provided by the invention was determined on Wistar rats of both sexes, each weighing 160 to 180 g., which had been treated with a single 500 mg./kg. dose of the test compounds, orally. […] In Table 3 the percentage of the perished animals is given.

[2] = system: BALB/c mice; experiment: Effect on ethanolic locomotoric hyperactivity / locomotor activity (Animex BSE motimeter); format: in vivo, mouse; conditions: n=15
Description: The effect of the compounds provided by the invention on ethanolic locomotoric hyperactivity was tested on BALB/c mice of both sexes, each weighing 16 to 18 g. The test materials were administered to groups of 15 in a 40 mg./kg. oral dose, one hour before administering a placebo orally or a 2 g./kg. dose of ethanol intraperitoneally. The control animals were treated with a placebo. The locomotor activity of the animals was measured for two hours, using an Animex BSE motimeter. The results are shown as a Table 2, in percentage of the control.
°Control (treated with placebo): ^-x ± S.E. = 3118.3 ±
305.6 total motion/2 hours

[3] = system: Hann.-Wistar rats; experiment: Effect on ethanolic narcosis period (righting reflex); format: in vivo, rat; conditions: 1 h before ethanol 3.5 g./kg. i.p., control = 100 ± 4.0, n=10
Description: The effect of the compounds according to the invention on ethanolic narcosis period was tested on Hann.-Wistar rats of both sexes, weighing 160 to 180 g. each. The animals were fasted for 16 hours prior to treatment. Groups of ten were then treated with various doses of the compounds of the formula (I) orally. One hour after treatment the animals were given a 3.5 g./kg. dose of ethanol, intraperitoneally. The narcosis period of the animals was measured from the elapse of the righting reflex until a spontaneous correction of the body position. The average of the narcosis period and the standard error were calculated, and the results are given in percentage of the control in Table 1. Abbreviations: x±S.E.=means value ± standard error n=number of animals The control group was treated with a placebo and a […]. dose of ethanol. Narcosis period of the control: 88.5±3.54x±S.E. minutes

[4] = in vivo; cited from earlier work
[5] = in vivo; cited from earlier work; remark: listed apart in the source
[6] = system: Wistar rats; experiment: Acute toxicity, single oral dose, 14 days observation; format: in vivo, rat; conditions: 500 mg./kg. p.o., n=10
Description: as §1

[7] = system: mice; conditions: cited from earlier work

## CCCN(CCC)CCCOc1ccc(C(O)(CC)c2cccc(Cl)c2)cc1 (stereo not drawn) [B, α-ethyl-α-(3-chlorophenyl)-4-[3-(di-n-propylamino)-propoxy]-benzylalcohol]
[1]
  mortality at 336 h: 0%
[2]; B + ethanol 2000 mg./kg. i.p., 40 mg./kg. oral 1 h before, control = 100 ± 9.8, ethanol + placebo = 170 ± 11.8
  Locomotor activity total motion/2 hour (%): 70 ± 8.4%
[2]; B + placebo (no ethanol), 40 mg./kg. oral, control = 100 ± 9.8
  Locomotor activity total motion/2 hour (%): 108 ± 13.3%
[3]; 0.3 mg./kg. orally
  Ethanolic narcosis period, control ± S.E. %: 65 ± 6.8%
[3]; 1.0 mg./kg. orally
  Ethanolic narcosis period, control ± S.E. %: 53 ± 4.7%
[3]; 10.0 mg./kg. orally
  Ethanolic narcosis period, control ± S.E. %: 49 ± 2.8%

## Cn1c(=O)c2c(ncn2C)n(C)c1=O [caffeine]
[4]
  motoric incoordination (ataxia) (in words): prolong the motoric incoordination (ataxia)
[5]
  narcotizing effect of alcohol (in words): moderate the narcotizing effect of alcohol

## CC(N)Cc1ccccc1 (centres unmarked) [amphetamine]
[4]
  motoric incoordination (ataxia) (in words): prolong the motoric incoordination (ataxia)
[5]
  narcotizing effect of alcohol (in words): moderate the narcotizing effect of alcohol

## CCC(O)(c1ccc(OCCN(C(C)C)C(C)C)cc1)c1ccccc1C(F)(F)F (stereo not drawn) [Compound C, α-ethyl-α-(2-trifluoromethylphenyl)-4-[3-(di-isopropylamino)-ethoxy]-benzylalcohol]
[6]
  Perished animals (%): 0%
[3]; 40.0 mg./kg. orally
  Ethanolic narcosis period, control ± S.E. %: 62 ± 5.1%

## CC(N)(Cc1ccc(O)cc1)C(=O)O (stereo not drawn) [α-methyl-paratyrosine]
[7]; in the effective dose range
  spontaneous locomotoric activity (in words): a decrease of the spontaneous locomotoric activity
[7]; mice
  ethanolic locomotoric hyperactivity (in words): normalizes the ethanolic locomotoric hyperactivity

## CCCN(CCC)CCCOc1ccc(C(O)(CC)c2ccccc2OC)cc1 (stereo not drawn) [A, α-ethyl-α-(2-methoxyphenyl)-4-[3-(di-n-propylamino)-propoxy]-benzylalcohol]
[1]
  mortality at 336 h: 0%
[3]; 5.0 mg./kg. orally
  Ethanolic narcosis period, control ± S.E. %: 60 ± 10.1%
[3]; 10.0 mg./kg. orally
  Ethanolic narcosis period, control ± S.E. %: 50 ± 6.9%

## N[C@@H](CS)C(=O)O [L-cysteine, reference compound]
[1]
  mortality at 336 h: 0%
[5]
  alcoholic intoxication, i.e. narcosis period (in words): shortened
[3]; 500.0 mg./kg. orally
  Ethanolic narcosis period, control ± S.E. %: 63 ± 4.2%
